In ChEMBL document CHEMBL3045831, “Insight into the structural requirement of aryltriazolinone derivatives as angiotensin II AT1 receptor: 2D and 3D-QSAR k-Nearest Neighbor Molecular Field Analysis approach” (Med Chem Res, 2012):

Target: T1, Type-1 angiotensin II receptor (Oryctolagus cuniculus, UniProt P34976)
T1 sequence (P34976 whole entry): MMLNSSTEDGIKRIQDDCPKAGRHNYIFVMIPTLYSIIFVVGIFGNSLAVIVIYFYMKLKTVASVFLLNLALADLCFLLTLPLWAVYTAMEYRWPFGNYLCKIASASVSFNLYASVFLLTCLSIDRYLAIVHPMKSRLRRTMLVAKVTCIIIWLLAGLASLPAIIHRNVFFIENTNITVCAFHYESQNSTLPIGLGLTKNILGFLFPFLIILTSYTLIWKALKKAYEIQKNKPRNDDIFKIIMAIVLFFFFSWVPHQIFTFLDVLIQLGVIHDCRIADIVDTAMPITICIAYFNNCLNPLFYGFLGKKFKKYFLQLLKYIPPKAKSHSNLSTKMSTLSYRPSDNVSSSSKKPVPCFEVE
Experiment: Antagonist activity at Oryctolagus cuniculus (rabbit) aortic AT1 receptor

Row | IC50 (read-out: IC50) [nM] | IC50 (read-out: pIC50 (converted)) [nM] | Structure (SMILES)
1 | 0.19 |  | CCCCC(=O)Nc1ccc(Cl)c(-n2nc(CCC)n(Cc3ccc(-c4ccccc4S(=O)(=O)NC(=O)c4cc(Cl)ccc4Cl)cc3F)c2=O)c1
2 |  | 0.178 | CCCCNC(=O)c1ccc(Cl)c(-n2nc(CCCC)n(Cc3ccc(-c4ccccc4S(=O)(=O)NC(=O)OC(C)(C)C)cc3F)c2=O)c1
